Reference: patent US5948802A, “Benzoate derivatives of diaryl 1,3,4-oxadiazolone” (Bristol-Myers Squibb Company, priority 1999, dated 1999)
Counter-ions that a name gives are not always drawn.

Tests used:
[1] = tested on: cloned mammalian (mSlo or hSlo) BK-mediated outward current; assay: Increase of cloned BK-mediated outward current in Xenopus oocytes, two-electrode voltage clamp; assay type: cell-based; conditions: 1 μM; at least 5 oocytes; mSlo or hSlo expressed in Xenopus oocytes
Procedure: (§1) The ability of the compound of Preparation 1 to open BK channels and increase whole-cell outward (K^+) BK-mediated currents was assessed under voltage-clamp conditions by determining their ability to increase cloned mammalian (mSlo or hSlo) BK-mediated outward current heterologously expressed in Xenopus oocytes [Butler, A., et al., Science, 261, pp. 221-224 (1993); and Dworetzky, S. I., et al., Mol. Brain Res., 27, pp.189-193 (1994)]. The two BK constructs employed represent nearly structurally identical homologous proteins, and have proven to be pharmacologically identical in our tests. To isolate BK current from native (background, non-BK) current, the specific and potent BK channel-blocking toxin iberiotoxin (IBTX) [Galvez, A., et al., J. Biol. Chem, 265, pp. 11083-11090 (1990)] was employed at a supramaximal concentration (50 nM). The relative contribution of BK channels current to total outward current was determined by subtraction of the current remaining in the presence of IBTX (non-BK current) from the current profiles obtained in all other experimental conditions (control, drug, and wash). […]

[2] = tested on: non-BK native currents in the oocytes; assay: Effect on non-BK (IBTX-insensitive) native currents in oocytes; assay type: cell-based, Xenopus; conditions: at the tested concentration
Procedure: as §1

focal cerebral ischemia = assay: Focal stroke model: permanent MCA and CCA occlusion, cortical infarct volume; assay type: in vivo, Wistar rat; conditions: 10 μg/kg i.v. single bolus two hours after MCA occlusion; measured 24 hours after MCAO; vs vehicle-treated (water) control
Procedure: To determine the ability of the compounds of the present invention to reduce cell loss resulting from neuronal ischemia, a standard focal cerebral ischemia is induced by permanent occlusion of the left middle cerebral artery (MCA) and common carotid artery (CCA) with one hour occlusion of the right CCA in the Wistar rat. The surgeries are performed using the sub-temporal approach of A. Tamura, et al., J. Cereb. Blood Flow Metab., 1, pp. 53-60, (1981) and its modifications [K. Osborne, et al., J. Neurol Neurosurg. Psychiatry, 50, pp. 402-410 (1987) and S. Menzies,et al., Neurosurgery, 31, pp. 100-107, (1992).]
The compound of Preparation 1 was evaluated in the focal stroke model involving permanent occlusion of the left MCA (MCAO) and CCA (CCAO) and temporary occlusion of the right CCA in the Wistar rat. This procedure results in a reliably large neocortical infarct volume that is measured by means of vital dye exclusion in serial slices through the brain 24 hours after MCAO. In the present test, compounds were administered using an i.v. or i.p. route of administration two hours after occlusion.

[3] = Rapid screen of prodrug hydrolysis and drug release in plasma; assay type: in vitro ADME; conditions: 10 ug/mL in fresh rat plasma at 37° C.; analysis 5 minutes after incubation; stock 1 mg/mL in PEG-400
Procedure: A rapid screen to determine the ability of prodrugs to hydrolyze and release the drug (compound of Preparation 1) is conducted as follows. A 1 mg/mL stock solution of the prodrug is prepared in distilled water or acetonitrile or PEG-400. Plasma from freshly collected rat or human blood is used in this assay. To 1 mL of plasma at 37° C. was added 10 μL of stock solution of prodrug and mixed gently. Immediately after the mixing, 100 μL of plasma was removed and quenched with 300 μL of acetontrile (Zero time sample). Samples were also obtained at 30 minutes and quenched immediately. The quenched samples were centrifuged to obtain a clear supernatant for analysis. The stock solution, T=0 and T=30 samples were analyzed by a HPLC assay that separates the drug from the prodrug. Based on the relative peak areas of prodrug and drug in these samples, different prodrugs are characterized as fast, moderate and slow release agents. For example, in this model, the compound of Example 1 was dissolved in PEG-400 at a concentration of 1 mg/mL and incubated at 10 ug/mL in fresh rat plasma at 37° C.

SMILES	BK current, % of control of IBTX-sensitive current [1] [%]	effect on non-BK native currents in the oocytes [2]	reduction of cortical infarct volume (focal cerebral ischemia)	conversion of prodrug to the compound of Preparation 1 [3]
O=c1oc(-c2ccc(C(F)(F)F)cc2)nn1Cc1cc(Cl)ccc1O [Preparation 1, 3-[(5-Chloro-2-hydroxyphenyl)methyl]-5-[4-(trifluoromethyl)phenyl]-1,3,4-oxadiazol-2(3H)-one]	126	did not effect non-BK native currents	about 18%	–
CCN(CC)Cc1ccc(C(=O)Oc2ccc(Cl)cc2Cn2nc(-c3ccc(C(F)(F)F)cc3)oc2=O)cc1 [Example 1, 4-Chloro-2-[[5-[4-(trifluoromethyl)phenyl]-2,3-dihydro-2-oxo-1,3,4-oxadiazol-3-yl]methyl]phenyl 4-[(diethylamino)-methylbenzoate hydrochloride]	–	–	–	indicated conversion of the compound of Example 1 to the compound of Preparation 1
